We go through five molecules from ChEMBL document CHEMBL2203214, “Polyether ionophores-promising bioactive molecules for cancer therapy” (Bioorg Med Chem Lett, 2012).

Values after ≈ are worked out from the molar mass of the structure shown.

A short description of data set [1]: Induction of apoptosis in malignant lymphocyte after 48 hrs. In kind it is functional.
The nature of data set [2]: Inhibition of vinblastine binding to human KB-C4 cells. Format: functional, cell-based.
Data set [3] relates to MDR. As to the kind of experiment: Inhibition of MDR in human KB-C4 cells assessed as increase of vinblastine accumulation after 1 hr relative to control. In kind it is cell-based.
For data set [4], the system named is MDR. Description: Inhibition of MDR in human KB-C4 cells assessed as increase of vinblastine accumulation preincubated for 30 mins before vinblastine addition measured after drug washout relative to control. In kind it is cell-based.
Data set [5] can be described thus: Cell cycle arrest in human SCC cells assessed as accumulation at G1/G0 phase after 24 hrs relative to control. In kind it is functional, cell-based.
Data set [6] is described as follows: Antiproliferative activity against human SCC cells assessed as non-viable cell level. In kind it is functional.
A further data set relates to PC-3. Description: Antiproliferative activity against human PC3 cells after 48 hrs. Format: functional, cell-based. The conditions noted are these: PC-3, 48 h.
Data set [7] in a line: Antiproliferative activity against human VCaP cells. Format: functional, cell-based.
Data set [8] is described as follows: Toxicity in subchronic oral dosed dog after 3 months. Format: organism-based, Canis lupus familiaris. Particulars: in vivo.
Data set [9] can be described thus: Toxicity in […] oral dosed dog after 1 year. In kind it is organism-based, Canis lupus familiaris. The conditions noted are these: in vivo.
A short description of data set [10]: Toxicity in chronic oral dosed rat after 2 years. Format: organism-based. The conditions noted are these: in vivo.
A further data set has as its system SNU-C1. As to the kind of experiment: Antiproliferative activity against human SNU-C1 cells assessed as growth inhibition at 0.5 uM. The conditions noted are these: read-out: GI. Format: functional.
Data set [11] is described as follows: Toxicity in subchronic oral dosed rat after 3 months. Format: organism-based. Particulars: in vivo.
Data set [12] is described as follows: Antiproliferative activity against human NCI-H929 cells assessed as growth inhibition at 0.5 uM. Format: functional. The conditions noted are these: read-out: GI.
Data set [13] is described as follows: Toxicity in chronic oral dosed mouse after 2 years. Format: organism-based. The conditions noted are these: in vivo.
A short description of data set [14]: Potentiation of colchicine-induced cytotoxicity in human KB-C4 cells at 1 ug/mL relative to control. In kind it is functional.

For the molecule `C[C@H](CCC(=O)O)C[C@H](C)C[C@H](C)C(=O)/C=C(\O)[C@H](C)C[C@H](C)C/C=C/[C@@H](C)[C@@H](O)[C@@H](C)[C@@H](O)C[C@@H]1CC[C@@](C)([C@H]2CC[C@@](C)([C@@H](C)O)O2)O1` [IONOMYCIN], it took 230 nM to reach half-maximal inhibition in [1] (IC50).

In data set [2], `CCC[C@H](O)[C@@]1(CC)C[C@@H](C)[C@](O)([C@]2(C)C[C@H](C)[C@@H]([C@@H](CC)C(=O)[C@@H](C)[C@@H](O)[C@H](C)[C@H]3O[C@@](O)([C@H](CC)C(=O)O)[C@@H](C)[C@H](O)[C@H]3CC)O2)O1` [INOSTAMYCIN] came in with an IC50 of 0.94 µg/mL (≈ 1.34 µM). For the same molecule, the fold change (FC) with MDR [3] is 4; with MDR [4], 3; in data set [5], 1.2. Also, the Activity in [6] is <1%.

For `CC[C@@H](C(=O)[C@@H](C)[C@@H](O)[C@H](C)[C@@H]1O[C@@H]([C@@H](CC)C(=O)O)CC[C@@H]1C)[C@H]1O[C@]2(C=C[C@@H](O)[C@]3(CC[C@@](C)([C@H]4CC[C@](O)(CC)[C@H](C)O4)O3)O2)[C@H](C)C[C@@H]1C` [SALINOMYCIN], the figures for the concentration giving a half-maximal response (EC50) (with PC-3; in data set [7]) were > 1000 nM and 380 nM, respectively.

Regarding `CC[C@@]1([C@@H]2O[C@@H]([C@H]3O[C@@](O)(CO)[C@H](C)C[C@@H]3C)C[C@@H]2C)CC[C@H]([C@]2(C)CC[C@]3(C[C@H](O)[C@@H](C)[C@@H]([C@@H](C)[C@@H](OC)[C@H](C)C(=O)O)O3)O2)O1` [MONENSIN], the results for the NOAEL at 3 months in data set [8] and in data set [11] were 5 mg/kg/day and 2 mg/kg, respectively. The NOAEL at 1 year in data set [9] amounted to 1.25 mg/kg/day. Also, the NOAEL at 2 years in data set [10] amounted to 1.4 mg/kg/day; in data set [13], 1.3 mg/kg/day. In addition, the inhibition of growth at 0.5 µM (with SNU-C1; in [12]) was 50% in each case.

`CCC(=O)O[C@H]([C@H](C)[C@H]1O[C@@]2(CC[C@@](C)([C@H]3CC[C@@](C)([C@@H]4O[C@@H]([C@H]5O[C@@](O)(CO)[C@H](C)C[C@@H]5C)C[C@@H]4C)O3)O2)C[C@H](O)[C@H]1C)[C@H](C)C(=O)O` [LAIDLOMYCIN]: the “fold change (FC)” value in data set [14] amounted to 700.

As usually defined, the IC50 is the midpoint of a concentration-inhibition curve. Higher therefore signals a need for much substance. Usually EC50 stands for the midpoint of the concentration-response curve. The term NOAEL denotes the highest dose or exposure tested at which no adverse effect was seen.
